Experimental findings from article PMC3426363 (Pharmaceutical research, 2011) are described below.

Each structure is given as a SMILES string.

The target of test [1] is T1, UGT1A1 (Homo sapiens, UniProt P22309).
T1 sequence (P22309 26-533): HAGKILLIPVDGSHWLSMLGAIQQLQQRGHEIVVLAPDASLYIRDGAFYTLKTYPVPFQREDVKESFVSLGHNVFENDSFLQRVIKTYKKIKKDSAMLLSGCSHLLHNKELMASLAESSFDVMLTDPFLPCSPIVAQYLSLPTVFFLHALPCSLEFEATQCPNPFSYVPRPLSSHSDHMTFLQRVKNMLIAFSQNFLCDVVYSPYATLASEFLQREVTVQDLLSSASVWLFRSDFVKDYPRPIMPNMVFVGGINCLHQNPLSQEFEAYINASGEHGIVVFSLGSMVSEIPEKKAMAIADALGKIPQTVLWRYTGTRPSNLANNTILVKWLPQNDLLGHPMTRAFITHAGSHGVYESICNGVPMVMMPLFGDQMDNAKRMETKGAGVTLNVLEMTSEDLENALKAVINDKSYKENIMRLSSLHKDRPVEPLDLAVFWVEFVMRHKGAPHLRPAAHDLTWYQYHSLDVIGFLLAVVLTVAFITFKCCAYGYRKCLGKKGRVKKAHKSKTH
The test is described as follows: UGT1A1 glucuronidation kinetics of flavonols. The class given is in vitro ADME. The conditions noted are these: substrate inhibition constant.

Test [2] deals with T1, UGT1A1. The test is described as follows: Inhibition of UGT1A1-mediated glucuronidation of 3-hydroflavone. The class given is biochemical. Conditions: 40 µM inhibitor; data not shown.

In the case of `O=c1c(O)c(-c2ccc(O)cc2)oc2cc(O)ccc12` [3,7,4’THF, 3,7,4’-tryhydroxyflavone], the Ks at UGT1A1 [1] (formation of 3-O-glucuronide) is reported as 5.41 ± 0.93 µM; on UGT1A1 [1] (formation of 7-O-glucuronide), 3.53 ± 0.86 µM. Further, the “inhibition of glucuronidation of 3-hydroflavone by UGT1A1” value at UGT1A1 [2] is given as “completely inhibited”.
